Publication PMC13360702, “An Agonist/Antagonist Photo‐Switchable Vitamin D Mimetic Enables Bidirectional Optical Control of VDR” (Angewandte Chemie (International Ed. in English), 2026)
Read-outs that look alike come from different tables or passages of the source.

Assays:
ASC52telo hTERT cells = test: in vitro osteogenesis model (ALP activity, von Kossa staining); type: cell-based, human; settings: osteogenic differentiation over 15 days, dark or Cell‐Disco (370 nm, 100 ms/10 s)
Description: FIGURE 3 Optical control of VDR activity with photo‐vitD (10). (a) 10 (1 µM) enabled light‐dependent in‐cell activation of VDR in a fluorescent (mCherry) reporter gene assay. Gray curve: dark; blue curve: Cell‐Disco (370 nm; 100 ms/10 s); yellow curve: dark for 10 h, then Cell‐Disco (370 nm); magenta curve: Cell‐Disco (370 nm) for 10 h, then Cell‐Disco (450 nm). Lines are the mean, shadows are S.E.M.; n = 6. (b–d) Phenotypic model of bone formation using human […] (ASC52telo hTERT cells) and cyclic treatment with dexamethasone, 2‐phospho‐L‐ascorbic acid, and glycerol 2‐phosphate over 15 days to induce osteogenesis. Alkaline phosphatase (ALP) activity (b) and von Kossa staining of hydroxyapatite (c; representative photomicrographs in d) were used as markers of osteogenesis. Experiments were performed in the dark (gray bars) and using a Cell‐Disco (370 nm, 100 ms/10 s; blue bars). Data are the mean±SD, n = 6. * p<0.05, ** p<0.01, *** p<0.001 (vs. respective dark or illuminated DMSO (diff.) ctrl or as indicated; ANOVA with Dunnett's multiple comparisons test).
Photo‐vitD (10) thus appeared suitable for application as tool for VDR control in complex phenotypic settings. […] Photo‐vitD (10) thus enabled bidirectional optical control of osteogenesis in cellulo based on its ability to switch between agonist and antagonist states. […]
experiment was repeated independently three times. CellDiscos[9] were used for pulsed irradiation at 370 nm or 450 nm to switch 10 between photostationary states. The live cells were assayed for fluorescence reporter intensity at multiple time points over 36 h. Fluorescence intensity (FI) was measured (λex 585/10 nm, λem 610/10 nm) in bottom reading mode with a Tecan Spark Cyto (Tecan Deutschland GmbH).
Fold FI was obtained by dividing the mean F I of a test sample by the mean FI of the untreated control of the respective measurement (time point).
In vitro osteogenesis model. […] Absorbance was measured at 410 nm for 60 min every 5 min with an increase in absorbance reflecting phosphatase activity (nmol/min). For quantification via linear […]

[1] = photophysical characterization (photo‐switching, thermal relaxation); type: physicochemical; settings: room temperature (∼21°C); pre‐illuminated at 365 nm for 30 min, then dark; (E)/(Z) ratios by NMR
Description: FIGURE 2 Development and characterization of the light‐activated vitamin D mimetic photo‐vitD (10). (a) Structure activity relationship of photo‐switchable VDR agonists 4–10. Compounds were tested in a cellular Gal4‐VDR hybrid reporter gene assay. Relative activation is normalized to the effect of 2 (1 µM) set as 100% activation. The (Z)‐states of the compounds were maintained with a Cell‐Disco [24] (370 nm). […] Data in agonist (EC50) and antagonist mode (IC50; vs. 0.3 µM 2) are shown for (E)‐ and (Z)‐10. The corresponding dose‐response curves are shown in (d). (b) Predicted binding mode of (E)‐7 (green) in the VDR ligand binding site (pdb ID 4g1d). […] (c) Predicted binding mode of (Z)‐10 (yellow) in the VDR ligand binding site. The altered regiochemistry conveys strong preference for the light‐induced (Z)‐configuration and the extended naphthoic acid motif enables a strong ionic contact to R302. (d) Dose‐response curves of (E)‐ (dark) and (Z)‐10 (370 nm) in the Gal4‐VDR reporter gene assay in agonist (top) and antagonist mode (bottom, with 0.3 µM calcitriol (2)). (Z)‐10 activated VDR; (E)‐10 and (Z)‐10 antagonized VDR activation by 0.3 µM calcitriol (2). (Z)‐10 was maintained with a Cell‐Disco [24] (370 nm). […] Absorbance was measured at 351 nm with a 25 µM solution in DMSO, one cycle is 30 sec. […] (E)/(Z) ratios were measured by NMR. […]

VDR = target: T1, VDR (Homo sapiens, UniProt P11473); test: Gal4‐VDR hybrid reporter gene assay, agonist mode; type: cell-based; settings: for EC50: HEK293T cells, mean±S.E.M., n≥3
T1 construct: -CMV-VDR-LBD coding for the hinge region and; expressed in transfected cells; host or cells: HEK293T
T1 sequence (P11473 127-423 limits assumed): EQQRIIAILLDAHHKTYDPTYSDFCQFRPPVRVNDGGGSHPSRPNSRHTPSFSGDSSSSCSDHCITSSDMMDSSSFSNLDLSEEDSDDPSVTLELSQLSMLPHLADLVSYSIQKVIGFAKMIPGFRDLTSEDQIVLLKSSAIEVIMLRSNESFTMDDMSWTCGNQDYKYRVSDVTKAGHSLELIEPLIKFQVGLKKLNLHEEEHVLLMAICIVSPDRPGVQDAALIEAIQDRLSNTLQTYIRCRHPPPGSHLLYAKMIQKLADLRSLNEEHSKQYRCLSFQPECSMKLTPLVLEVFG
Description: FIGURE 2 Development and characterization of the light‐activated vitamin D mimetic photo‐vitD (10). (a) Structure activity relationship of photo‐switchable VDR agonists 4–10. Compounds were tested in a cellular Gal4‐VDR hybrid reporter gene assay. Relative activation is normalized to the effect of 2 (1 µM) set as 100% activation. The (Z)‐states of the compounds were maintained with a Cell‐Disco [24] (370 nm). […] Data in agonist (EC50) and antagonist mode (IC50; vs. 0.3 µM 2) are shown for (E)‐ and (Z)‐10. The corresponding dose‐response curves are shown in (d). (b) Predicted binding mode of (E)‐7 (green) in the VDR ligand binding site (pdb ID 4g1d). […] (c) Predicted binding mode of (Z)‐10 (yellow) in the VDR ligand binding site. The altered regiochemistry conveys strong preference for the light‐induced (Z)‐configuration and the extended naphthoic acid motif enables a strong ionic contact to R302. (d) Dose‐response curves of (E)‐ (dark) and (Z)‐10 (370 nm) in the Gal4‐VDR reporter gene assay in agonist (top) and antagonist mode (bottom, with 0.3 µM calcitriol (2)). (Z)‐10 activated VDR; (E)‐10 and (Z)‐10 antagonized VDR activation by 0.3 µM calcitriol (2). (Z)‐10 was maintained with a Cell‐Disco [24] (370 nm). Data are the mean±S.E.M. relative VDR act. vs. 0.3 µM calcitriol (2), n≥3. (e) Activity profile of 10 (1 µM) on nuclear receptors showing exclusive VDR activation by the light‐activated state. 10 was tested in a panel of uniform Gal4‐NR hybrid reporter gene assays. (Z)‐10 was maintained with a Cell‐Disco [24] (370 nm). Data are the mean±SD, n = 3. (f) Representative UV/Vis spectra of 10 as (E)‐ (dark) and (Z)‐states (PSS 365 nm), and after switching back to (E) with 465 nm. (g) (E)/(Z)‐ratios of 10 in the dark‐adapted state, after illumination at 365 nm for 5 min and after switching back from mostly‐(Z) with 465 nm for 5 min. (h) 10 could be rapidly and reversibly switched between the (E)‐ and (Z)‐states over multiple cycles by alternating irradiation at 365 and 465 nm. Absorbance was measured at 351 nm with a 25 µM solution in DMSO, one cycle is 30 sec. […] 10 was pre‐illuminated at 365 nm for 30 min and then kept in the dark. (E)/(Z) ratios were measured by NMR. (j) Binding mode prediction of (E)‐ and (Z)‐10 to the VDR‐antagonist complex 2zxm (residues numbered according to [21]). (Z)‐10 (yellow) forms an agonist‐like binding mode with several polar interactions at both ends of the pocket. (E)‐10 (cyan) is also anchored at the distal end of the pocket by an H‐bond network with R302 and the D176 backbone but due to the (E)‐configuration, the β‐naphthoic acid residue protrudes deeper and the pentan‐3‐ol motif rotates away from H333/H423. Therefore, (E)‐10 lacks stabilizing/activating contacts with the H333/H423 region rationalizing its antagonist properties.
Gal4-hybrid reporter gene assays. Reporter gene assays were performed in HEK293T cells (German Collection of Microorganisms and Cell Culture GmbH, DSMZ) as reported previously using Gal4 -NR LBD fusion receptor plasmids each coding for the hinge region and LBD of the canonical isoform of the respective human nuclear receptor.[7,8] pFR-Luc (Stratagene, La Jolla, CA, USA) served as a reporter plasmid and pRL-SV40 (Promega, Madison, WI, USA) was used for normalization of transfection efficiency and test compound toxicity. Cells were cultured in Dulbecco’s modified Eagle’s medium (DMEM), high glucose supplemented with 10% fetal calf serum (FCS), sodium pyruvate (1 mM), penicillin (100 U/mL), and streptomycin (100 μg/mL) at 37 °C and 5% CO2, and seeded in 96-well plates (3 × 10^4 cells/well). After 24 h, the medium was changed to Opti -MEM without supplements, and cells were transiently transfected using Lipofectamine LTX reagent (Invitrogen, Carlsbad, CA, USA) according to the manufacturer’s protocol. Five hours after transfection, cells were incubated with the test compounds […]

[2] = (Z)‐state maintained with Cell‐Disco (370 nm), read-out: VDR modulation light-activated (Z): EC50
[3] = dark‐adapted (E)‐state, read-out: VDR modulation dark (E): EC50

Q: With CCCc1cc(C(O)(CC)CC)ccc1-c1ccc(/N=N/c2ccc3cc(C(=O)O)ccc3c2)cc1C [(E)‐10] as the compound, how does the “effect on osteogenesis (ALP activity, von Kossa staining positive area)” value (“effect on osteogenesis” for short) (ASC52telo hTERT cells) read?
A: Its value is “promoted osteogenesis”.

Q: For CCCc1cc(C(O)(CC)CC)ccc1-c1ccc(/N=N\c2ccc3cc(C(=O)O)ccc3c2)cc1C [(Z)‐10], which “thermal relaxation half‐life” value [1] is on record?
A: The value was 29 h.

Q: And the “effect on osteogenesis” value (ASC52telo hTERT cells)?
A: The value was “resembled the effects of calcitriol with weaker efficacy”.

Q: Which “effect on osteogenesis” value (ASC52telo hTERT cells) does the source give for C=C1/C(=C\C=C2/CCC[C@]3(C)[C@@H]([C@H](C)CCCC(C)(C)O)CC[C@@H]23)C[C@@H](O)C[C@@H]1O [compound 2, 1,25‐dihydroxyvitamin D, reference compound] here?
A: The value was “counteracted bone formation”.

Q: Which results are given for CCCc1cc(C(O)(CC)CC)ccc1-c1cc(/N=N/c2ccc(CO)c(CO)c2)ccc1C [compound 4]?
A: EC50 (VDR; [2]): 140 ± 300 nM; activity difference between the dark‐adapted (E)‐ and the light‐induced (Z)‐isomers (VDR; VDR agonism, (E) vs (Z)): 4 fold; EC50 (VDR; [3]): 600 ± 200 nM

Q: Which EC50 (VDR; [2]) does the source give for CCC(O)(CC)c1ccc(-c2cc(/N=N/c3ccc(CO)c(CO)c3)ccc2C)c(C)c1 [compound 5] here?
A: Its EC50 is 920 ± 60 nM.

Q: And the EC50 (VDR; [3])?
A: Its EC50 is 1000 ± 200 nM.

Q: For CCCCc1cc(C(O)(CC)CC)ccc1-c1cc(/N=N/c2ccc(CO)c(CO)c2)ccc1C [compound 6], which EC50 (VDR; [2]) is on record?
A: Its EC50 is 1100 ± 200 nM.

Q: And the EC50 (VDR; [3])?
A: Its EC50 is 1800 ± 300 nM.

Q: With CCCc1cc(C(O)(CC)CC)ccc1-c1cc(/N=N/c2ccc(C(=O)O)c(O)c2)ccc1C [compound 7] as the compound, how does the EC50 (VDR; [2]) read?
A: The EC50 was 310 ± 40 nM.

Q: And the EC50 (VDR; [3])?
A: Its EC50 is 500 ± 100 nM.

Q: Which EC50 (VDR; [2]) does the source give for CCCc1cc(C(O)(CC)CC)ccc1-c1ccc(/N=N/c2ccc(C(=O)O)c(O)c2)cc1C [compound 8] here?
A: Its EC50 is 1400 ± 200 nM.

Q: What about the EC50 (VDR; [3]) of the same compound?
A: The EC50 was > 10000 nM.

Q: Which “VDR modulation light-activated (Z): activation in words” value (VDR; (Z)‐state, Cell‐Disco (370 nm), 10 μM, inactive = no statistically significant activation at the indicated concentration) does the source give for CCCc1cc(C(O)(CC)CC)ccc1-c1ccc(/N=N/c2ccc3[nH]c(=O)[nH]c3c2)cc1C [compound 9] here?
A: Its value is “failed to activate VDR”.

Q: What about the “VDR modulation dark (E): activation in words” value (VDR; dark‐adapted (E)‐state, 10 μM, inactive = no statistically significant activation at the indicated concentration) of the same compound?
A: Its value is “failed to activate VDR”.
